For data set [1] the following is noted: mouse, in vivo. The procedure: (§1) In order to assess these promising ligands as potential theranostics, the library of [^68Ga]Ga-DOTA-peptides was evaluated using static small animal PET imaging and quantifying biodistribution studies. This study was performed to investigate tumor uptake as well as the accumulation of radioligands in other organs. Mice bearing A431-CCK2R tumors were imaged at 1- and 2 hours post tracer injection, and tracer biodistribution was evaluated at the 1 hour and 2.5 hour time points to quantify tumor uptake and retention. […]
(§2) Small Animal PET Imaging and Biodistribution Studies
(§3) Female NSG mice (age 11-14 weeks) were sourced from Animal Resources Centre, (Canning Vale, Western Australia) and were inoculated subcutaneously on the right flank with 1-3 x 106 […]
(§4) A431-CCK2R cells in PBS:Matrigel (1:1). […]
(§5) Mice were assigned to imaging and/or biodistribution groups (tumour volumes: 119-327 mm3).
(§6) The respective 68Ga labelled tracer (1.63–3.81 MBq, 170µL, 13.7–14.2 pmoles) containing vehicle solution (75µL, DMSO:Tween 80: water, 2:2:6 v/v/v) was then administered to mice intravenously via tail vein injection. Three mice were euthanized for biodistribution 1 hour post injection (n=3) and selected tissues were excised, weighed, and counted using a Capintec (Captus 4000e) gamma counter. Three mice were anaesthetised using 1.5% isoflurane and imaged at 1 hour (n=3) and 2 hours (n=3) with a G8 Small Animal PET/CT scanner (Perkin […]
(§7) Elmer/Sofie Biosciences). A 10 min static PET scan was acquired, followed immediately by a CT scan (Supplementary Data, pS51–S55). PET images were acquired using the G8 acquisition engine software and reconstructed using a 3D maximal likelihood and expectation maximization (ML-EM) algorithm. PET images were analysed using VivoQuant software, version 3.0 (inviCRO Imaging Services and Software) to quantify maximum standardised uptake value in regions of interest (SUVmax). Background regions for imaging experiments were calculated by quantitating mean standardised uptake value (SUVmean) of the abdomen and gut region. The region of interest was selected due to low uptake in abdomen/gut during imaging. After imaging the 2-hour time point, mice organs were harvested for biodistribution […]
(§8) For blocking CCK2R binding a solution of N-[(3R)-2,3-Dihydro-1-[2-(2-methylphenyl)-2-oxoethyl]-2-oxo-5-phenyl-1H-1,4-benzodiazepin-3-yl]-N′-(3-methylphenyl)-urea (YM022; Sigma Aldrich) was used. YM022 (75µL of a 1 mg/ml solution constituting DMSO:Tween 80: water, 2:2:6 v/v/v) was added to the respective 68Ga labelled tracer (1.41–3.61 MBq, 100 µL, 13.7–14.2 pmoles) and this mixture ([…]) was administered in three mice intravenously via tail vein injection and organs harvested at 1 hour post injection for biodistribution analysis, as above.
(§9) All animal experiments were performed with the approval of the Peter MacCallum Cancer Centre Animal Experimentation Ethics Committee and in accordance with the Australian code for the care and use of animals for scientific purposes, 8th Edition, 2013 (AEEC Approval

The next data set in a line: in vivo. To be noted: female, NSG, mouse, iv, total radioactivity; for SUV at 1 h / SUV at 2 h: SUVmax. The procedure:
as §1, §2, §3, §4, §5, §6, §7, §8, §9

Data set [2] is classed as in vitro ADME, mouse. The procedure:
Metabolic stability is an important determinant of the efficacy of peptide radiopharmaceuticals and their progression as promising theranostic candidates. In vitro, metabolic degradation through hepatic and renal enzymes can be assessed by utilizing liver and kidney tissue homogenates. Radiolabeled peptides [^68Ga]Ga-DOTA-GA4, and D-Ala substituted variants [^68Ga]Ga-DOTA-GA7, [^68Ga]Ga-DOTA-GA11-GA13 were incubated in liver and kidney mouse homogenates, in human serum at 37°C, and in HEPES buffer (pH 7.4) as a negative control. Following a time course experiment, the metabolites were analyzed using HPLC to quantify the % breakdown of the respective parent peptide. […]
To assess the stability of 68Ga radiolabeled peptides against enzymatic degradation, duplicate samples (750-900 pmol/mL, 2-5MBq) were incubated at 37 ℃ with pooled human serum, 15% […]
mouse kidney homogenate, 30% mouse liver homogenate or 20 mM HEPES, pH 7.3 (control).
Human blood was collected, and serum prepared using SSTII advance vacutainer tubes according to the manufacturer’s instructions (Becton Dickinson, New Jersey, USA). Mouse kidney and liver homogenates were prepared by washing the tissues in ice-cold HEPES buffer, pH 7.3 and placing them in pre-chilled tubes containing HEPES buffer and 2.38 mm metal beads (Mo-Bio Laboratories, Hilden, Germany). Tissues were homogenised using the PowerLyzer24 homogeniser (Qiagen, Hilden, Germany) according to the manufacturer’s instructions. 68Ga radiolabeled peptides were then incubated with the various lysates at 37 ℃ and samples were collected at 15, 30, 60 and 90 min. Reactions were terminated by addition of an equal volume of acetonitrile and centrifugation for 2 min at 15,000 rpm. Supernatants were diluted in water before being analysed by HPLC using a Kinetex C18 XB column (5µm

Data set [3] is classed as physicochemical. The procedure: Lipophilicity, expressed as the octanol-water partition coefficient, constitutes an important property in drug action, influencing both pharmacokinetic and pharmacodynamics processes. The distribution coefficient (LogD7.4) of [^68Ga]Ga-DOTA-peptides was determined by measuring radioactivity distribution in the aqueous phase (phosphate buffer pH7.4) and the organic phase (n-octanol). […]
To determine the distribution coefficient (logD 7.4), 68Ga radiolabeled peptides [68Ga]Ga-DOTA-GA4, [68Ga]Ga-DOTA-GA7, and [68Ga]Ga-DOTA-GA11–GA13 were diluted to approximately 20 pmol/mL in PBS (pH 7.4) and an equal volume of n-octanol was added. The mixture was vortexed vigorously for 10 cycles of 1 min at room temperature before being centrifuged for 6 min to separate the two phases. Equal volumes from each phase were aliquoted into individual counting tubes and analysed for 1 min using the Perkin Elmer 2480 Wizard2™ gamma counter (PerkinElmer, Massachusetts, USA). The distribution coefficient was calculated using the following equation LogD = […]. […]

Setting [4] is: 3 mg/kg, Uptake in A431-CCK2R Tumors, 1 hr Blocked.
Setting [5] is: Uptake in A431-CCK2R Tumors, 1 hr.
[6] abbreviates: mouse, tissue homogenate, Half-life (t1/2) in Kidney Homogenate.
The mark [7] stands for this setting: mouse, tissue homogenate, Half-life (t1/2) in Liver Homogenate.

Where two headings read alike, the source gives them in different places. Where a SMILES comes first, the peptide text is derived from it. [ ]: non-standard residue; d: D form. The star is where a group is joined. DOTA = O=C(O)CN1CCN(CC(=O)O)CCN(CC(=O)*)CCN(CC(=O)O)CC1; 1Nal = N[C@@H](Cc1cccc2ccccc12)C(=O)O; NMeF = CN[C@@H](Cc1ccccc1)C(=O)O; NMeNle = CCCC[C@H](NC)C(=O)O; Sar = CNCC(=O)O

On to `CCCC[C@@H](C(=O)N[C@@H](CC(=O)O)C(=O)N[C@@H](Cc1cccc2ccccc12)C(N)=O)N(C)C(=O)[C@H](Cc1c[nH]c2ccccc12)NC(=O)CN(C)C(=O)[C@H](Cc1ccc(O)cc1)NC(=O)[C@H](C)NC(=O)[C@@H](CCC(=O)O)NC(=O)[C@@H](CCC(=O)O)NC(=O)[C@@H](CCC(=O)O)NC(=O)[C@@H](C)NC(=O)[C@@H](CCC(=O)O)NC(=O)[C@@H](CCC(=O)O)NC(=O)CN1CCN(CC(=O)O)CCN(CC(=O)O)CCN(CC(=O)O)CC1` [[^68Ga]Ga-DOTA-GA7, metal not drawn] ({DOTA}-[dE][dE][dA][dE][dE][dE]AY[Sar]W[NMeNle]D[1Nal]-NH2), for which the tissue uptake at 1 h in data set [1] (setting [4]) was 2.76 ± 0.14 %ID/g; in data set [1] (setting [5]), 5.71 ± 1.5 %ID/g; in data set [1] (Uptake in Organs: Blood), 0.68 ± 0.31 %ID/g; in data set [1] (Uptake in Organs: Heart), 0.3 ± 0.02 %ID/g; in data set [1] (Uptake in Organs: Kidneys), 8.67 ± 0.8 %ID/g; in data set [1] (Uptake in Organs: Liver), 0.3 ± 0.01 %ID/g. Besides, the tissue uptake at 1 h in data set [1] (Uptake in Organs: Lungs) was 0.57 ± 0.03 %ID/g; in data set [1] (Uptake in Organs: Muscle), 0.12 ± 0.02 %ID/g; in data set [1] (Uptake in Organs: Spleen), 0.24 ± 0.02 %ID/g; in data set [1] (Uptake in Organs: Stomach) it was 2.22 ± 0.14 %ID/g. In data set [1] (Uptake in A431-CCK2R Tumors), this compound registered a tissue uptake at 2.5 h of 7.36 ± 1.16 %ID/g. Further, the tissue to tissue ratio at 1 h in the data set “in vivo” stood at 17.3 ± 1.84. In addition, in “in vivo”, the SUV at 1 h stood at 0.65 SUV. In addition, in “in vivo”, the SUV at 2 h was 0.61 SUV. The half-life is 3.76 h in data set [2] (setting [6]) and 5.87 h in data set [2] (setting [7]). In data set [3], the pH-dependent lipophilicity (logD) was -2.88 ± 0.09.

For the compound `CCCC[C@@H](C(=O)N[C@@H](CC(=O)O)C(=O)N(C)[C@@H](Cc1ccccc1)C(N)=O)N(C)C(=O)[C@H](Cc1c[nH]c2ccccc12)NC(=O)CN(C)C(=O)[C@H](Cc1ccc(O)cc1)NC(=O)[C@H](C)NC(=O)[C@@H](CCC(=O)O)NC(=O)[C@@H](CCC(=O)O)NC(=O)[C@@H](CCC(=O)O)NC(=O)[C@@H](C)NC(=O)[C@@H](CCC(=O)O)NC(=O)[C@@H](CCC(=O)O)NC(=O)CN1CCN(CC(=O)O)CCN(CC(=O)O)CCN(CC(=O)O)CC1` [[^68Ga]Ga-DOTA-GA11, metal not drawn] ({DOTA}-[dE][dE][dA][dE][dE][dE]AY[Sar]W[NMeNle]D[NMeF]-NH2), the tissue uptake at 1 h in data set [1] (setting [4]) is 2.07 ± 0.15 %ID/g; in data set [1] (setting [5]), 5.6 ± 1.16 %ID/g; in data set [1] (Uptake in Organs: Blood), 0.46 ± 0.08 %ID/g; in data set [1] (Uptake in Organs: Heart) it was 0.27 ± 0.08 %ID/g; in data set [1] (Uptake in Organs: Kidneys), 7.38 ± 1.54 %ID/g; in data set [1] (Uptake in Organs: Liver) it was 0.29 ± 0.01 %ID/g. The tissue uptake at 1 h worked out at 0.59 ± 0.02 %ID/g in data set [1] (Uptake in Organs: Lungs), 0.09 ± 0.02 %ID/g in data set [1] (Uptake in Organs: Muscle), 0.34 ± 0.08 %ID/g in data set [1] (Uptake in Organs: Spleen) and 1.04 ± 0.06 %ID/g in data set [1] (Uptake in Organs: Stomach). In data set [1] (Uptake in A431-CCK2R Tumors), this compound showed a tissue uptake at 2.5 h of 5.42 ± 0.7 %ID/g. Besides, the tissue to tissue ratio at 1 h in “in vivo” worked out at 14.4 ± 2.23. The SUV at 1 h in the data set “in vivo” is 0.39 SUV. Besides, the SUV at 2 h in “in vivo” stood at 0.34 SUV. The “metabolites in kidney homogenates” value in data set [2] is on record as “no observable metabolites detected”. Besides, the “metabolites in liver homogenates” value in data set [2] is listed as “no observable metabolites detected”. Moreover, in data set [3], the logD is -3.56 ± 0.01.

Turning to `CCCC[C@@H](C(=O)N[C@@H](CC(=O)O)C(=O)N[C@@H](Cc1ccccc1)C(N)=O)N(C)C(=O)[C@H](Cc1c[nH]c2ccccc12)NC(=O)CN(C)C(=O)[C@H](Cc1ccc(O)cc1)NC(=O)[C@H](C)NC(=O)[C@@H](CCC(=O)O)NC(=O)[C@@H](CCC(=O)O)NC(=O)[C@@H](CCC(=O)O)NC(=O)[C@@H](C)NC(=O)[C@@H](CCC(=O)O)NC(=O)[C@@H](CCC(=O)O)NC(=O)CN1CCN(CC(=O)O)CCN(CC(=O)O)CCN(CC(=O)O)CC1` [[^68Ga]Ga-DOTA-GA12, metal not drawn] ({DOTA}-[dE][dE][dA][dE][dE][dE]AY[Sar]W[NMeNle]DF-NH2), the tissue uptake at 1 h was found to be 2.53 ± 0.11 %ID/g in data set [1] (setting [4]); 6.7 ± 0.69 %ID/g in data set [1] (setting [5]); 0.29 ± 0.01 %ID/g in data set [1] (Uptake in Organs: Blood); 0.14 ± 0.01 %ID/g in data set [1] (Uptake in Organs: Heart); 4.52 ± 0.38 %ID/g in data set [1] (Uptake in Organs: Kidneys); 0.19 ± 0.02 %ID/g in data set [1] (Uptake in Organs: Liver). In addition, the tissue uptake at 1 h in data set [1] (Uptake in Organs: Lungs) amounted to 0.34 ± 0.04 %ID/g; in data set [1] (Uptake in Organs: Muscle), 0.09 ± 0.02 %ID/g; in data set [1] (Uptake in Organs: Spleen), 0.25 ± 0.04 %ID/g; in data set [1] (Uptake in Organs: Stomach), 1.38 ± 0.08 %ID/g. The compound also had a tissue uptake at 2.5 h in data set [1] (Uptake in A431-CCK2R Tumors) of 6.81 ± 1.4 %ID/g. Besides, the tissue to tissue ratio at 1 h in “in vivo” was found to be 24.9 ± 4.57. For the same compound, in “in vivo”, the SUV at 1 h was found to be 0.5 SUV. Further, the SUV at 2 h in the data set “in vivo” amounted to 0.45 SUV. Further, the “Half-life (t1/2) in Kidney Homogenate” value in data set [2] (mouse, tissue homogenate) is 0.7722 h. The “Half-life (t1/2) in Liver Homogenate” value in data set [2] (mouse, tissue homogenate) is 1.071 h. In addition, the half-life is 0.772 h in data set [2] (setting [6]) and 1.07 h in data set [2] (setting [7]). Moreover, the log distribution coefficient (logD) in data set [3] is -4.06 ± 0.14.

A word on the tissue uptake: it is the percentage of the injected dose found per gram of tissue. Read a low tissue uptake as little accumulation. In general, half-life refers to the time needed for the level to fall by half in the phase considered. A lower half-life goes with rapid decline. Broadly, the logD is the decadic logarithm of the distribution of all forms, ionised or not, between an organic phase and buffer at a given pH. A higher logD goes with higher lipophilicity.

The values above are taken from publication PMC10945332, “Precision peptide theranostics: developing N- to C-terminus optimized theranostics targeting cholecystokinin-2 receptor” (Theranostics, 2024).
